This assay has as its system CD2F1 mice, L1210 leukemia ip, survival T/C. The assay is described as follows: NCI In Vivo Anticancer Drug Screen. Data for tumor model L1210 Leukemia (intraperitoneal) in CD2F1 (CDF1) mice. To be noted: higher = longer survival. Put shortly:
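Transplantable tumor in mice; compound-treated vs vehicle-treated groups. Read-out = treated/control ratio of the measured endpoint.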

Where [1] appears, read: endpoint: mean survival time, dose: 100.0 mg/kg/injection, schedule: Q04DX002 (ip), vehicle: saline with Tween-80.
Setting [2] is: endpoint: mean survival time, dose: 200.0 mg/kg/injection, schedule: Q04DX002 (ip), vehicle: saline with Tween-80.
Where [3] appears, read: endpoint: mean survival time, dose: 400.0 mg/kg/injection, schedule: Q04DX002 (ip), vehicle: saline with Tween-80.
Setting [4] is: endpoint: mean survival time, dose: 100.0 mg/kg/injection, schedule: Q04DX003 (ip), vehicle: saline with Tween-80.
Setting [5] is: endpoint: mean survival time, dose: 200.0 mg/kg/injection, schedule: Q04DX003 (ip), vehicle: saline with Tween-80.
The mark [6] stands for this setting: endpoint: mean survival time, dose: 400.0 mg/kg/injection, schedule: Q04DX003 (ip), vehicle: saline with Tween-80.
Where [7] appears, read: endpoint: mean survival time, dose: 100.0 mg/kg/injection, schedule: Q01DX009 (ip), vehicle: saline with Tween-80.
Where [8] appears, read: endpoint: mean survival time, dose: 200.0 mg/kg/injection, schedule: Q01DX009 (ip), vehicle: saline with Tween-80.
[9] abbreviates: endpoint: mean survival time, dose: 400.0 mg/kg/injection, schedule: Q01DX009 (ip), vehicle: saline with Tween-80.
[10] abbreviates: endpoint: mean survival time, dose: 100.0 mg/kg/injection, schedule: Q01DX001 (ip), vehicle: saline with Tween-80.
Setting [11] is: endpoint: mean survival time, dose: 200.0 mg/kg/injection, schedule: Q01DX001 (ip), vehicle: saline with Tween-80.

Where “and” joins values, the source holds several entries; their conditions need not be identical. Equal values may be shown once. Toxic doses and inconclusive results are not listed.

For the molecule `Cc1ccc(S(=O)(=O)N/N=C/c2ccc(O)c(O)c2)cc1`, the T/C (endpoint: mean survival time, dose: 12.5 mg/kg/injection, schedule: Q04DX003 (ip), vehicle: other) is 101 % of control; the T/C (endpoint: mean survival time, dose: 25.0 mg/kg/injection, schedule: Q04DX003 (ip), vehicle: other) is 98 % of control; the T/C (endpoint: mean survival time, dose: 50.0 mg/kg/injection, schedule: Q04DX003 (ip), vehicle: other) is 101 % of control; the T/C (endpoint: mean survival time, dose: 100.0 mg/kg/injection, schedule: Q04DX003 (ip), vehicle: other) is 101 % of control; the T/C (endpoint: mean survival time, dose: 200.0 mg/kg/injection, schedule: Q04DX003 (ip), vehicle: other) is 95 % of control; the T/C (endpoint: mean survival time, dose: 400.0 mg/kg/injection, schedule: Q04DX003 (ip), vehicle: other) was 101 % of control.

On to `O=C(O)CCSCCC(=O)O`, for which the T/C reads like this: (endpoint: mean survival time, dose: 100.0 mg/kg/injection, schedule: Q01DX001 (ip), vehicle: saline) 100 % of control; (endpoint: mean survival time, dose: 200.0 mg/kg/injection, schedule: Q01DX001 (ip), vehicle: saline) 105 % of control; (endpoint: mean survival time, dose: 400.0 mg/kg/injection, schedule: Q01DX001 (ip), vehicle: saline) 101 % of control.

On to `C[n+]1c(-c2cccc(-c3ccccc3)c2)c2cc(N)ccc2c2ccccc21`, for which the T/C is, setting by setting: (endpoint: mean survival time, dose: 0.78 mg/kg/injection, schedule: Q01DX009 (ip), vehicle: other) 92 % of control; (endpoint: mean survival time, dose: 1.56 mg/kg/injection, schedule: Q01DX009 (ip), vehicle: other) 92 % of control; (endpoint: mean survival time, dose: 3.13 mg/kg/injection, schedule: Q01DX009 (ip), vehicle: other) 104 % of control; (endpoint: mean survival time, dose: 6.25 mg/kg/injection, schedule: Q01DX009 (ip), vehicle: other) 108 % of control and 110 % of control.

Consider `COc1cccc2c1C(=O)c1c(OC)cccc1C2=O`, for which the T/C (endpoint: mean survival time, dose: 25.0 mg/kg/injection, schedule: Q01DX005 (ip), vehicle: other) was 104 % of control; the T/C (endpoint: mean survival time, dose: 50.0 mg/kg/injection, schedule: Q01DX005 (ip), vehicle: other) was 101 % of control; the T/C (endpoint: mean survival time, dose: 100.0 mg/kg/injection, schedule: Q01DX005 (ip), vehicle: other) was 101 % of control; the T/C (endpoint: mean survival time, dose: 200.0 mg/kg/injection, schedule: Q01DX005 (ip), vehicle: other) is 97 % of control; the T/C (endpoint: mean survival time, dose: 400.0 mg/kg/injection, schedule: Q01DX005 (ip), vehicle: other) is 93 % of control.

On to `COC(=O)/C=C/N(CCF)CCF`, for which the T/C by setting is: (endpoint: mean survival time, dose: 1.0 mg/kg/injection, schedule: Q01DX Z (ip), vehicle: saline) 94 % of control; (endpoint: mean survival time, dose: 3.0 mg/kg/injection, schedule: Q01DX Z (ip), vehicle: saline) 108 % of control.

For `CC(O)C(=O)O.CCCCOC(=O)CC(O)(CC(=O)OCCCC)C(=O)OCCCC.[Cl-].[Cl-].[NH2-].[NH2-].[Pt+4]`, the T/C (endpoint: mean survival time, dose: 3.13 mg/kg/injection, schedule: Q04DX003 (ip), vehicle: Klucel (hydroxypropylcellulose) (HPC)) is 104 % of control and 108 % of control and 105 % of control; the T/C (endpoint: mean survival time, dose: 6.25 mg/kg/injection, schedule: Q04DX003 (ip), vehicle: Klucel (hydroxypropylcellulose) (HPC)) is 108 % of control and 111 % of control and 98 % of control; the T/C (endpoint: mean survival time, dose: 12.5 mg/kg/injection, schedule: Q04DX003 (ip), vehicle: Klucel (hydroxypropylcellulose) (HPC)) is 109 % of control [middle of 4 runs]; the T/C (endpoint: mean survival time, dose: 25.0 mg/kg/injection, schedule: Q04DX003 (ip), vehicle: Klucel (hydroxypropylcellulose) (HPC)) is 96 % of control and 113 % of control and 104 % of control; the T/C (endpoint: mean survival time, dose: 100.0 mg/kg/injection, schedule: Q04DX003 (ip), vehicle: Klucel (hydroxypropylcellulose) (HPC)) was 95 % of control; the T/C (endpoint: mean survival time, dose: 200.0 mg/kg/injection, schedule: Q04DX003 (ip), vehicle: Klucel (hydroxypropylcellulose) (HPC)) is 113 % of control.

Regarding `O=C(NC/C=C/Br)Oc1cccc2ccccc12`, the T/C reads like this: under setting [1], 101 % of control; under setting [2], 93 % of control; under setting [3], 101 % of control.

For the molecule `O=C(OC(c1ccccc1)(C(F)(F)F)C(F)(F)F)c1ccccc1Sc1ccccc1`, the T/C was 98 % of control under setting [4], 93 % of control under setting [5] and 93 % of control under setting [6].

Turning to `O=c1[nH]c2ccc(Cl)cc2c2ccccc12`, the T/C is 91 % of control (endpoint: mean survival time, dose: 100.0 mg/kg/injection, schedule: Q01DX001 (ip), vehicle: carboxymethylcellulose (CMC)); 97 % of control (endpoint: mean survival time, dose: 200.0 mg/kg/injection, schedule: Q01DX001 (ip), vehicle: carboxymethylcellulose (CMC)); 105 % of control (endpoint: mean survival time, dose: 400.0 mg/kg/injection, schedule: Q01DX001 (ip), vehicle: carboxymethylcellulose (CMC)).

In the case of `Brc1ccc2c(c1)CCCC2`, the T/C runs as follows: under setting [4], 95 % of control; under setting [5], 103 % of control; under setting [6], 93 % of control.

On to `Clc1ccc(C(=Cc2ccccc2)c2ccc(Cl)cc2)cc1`, for which the T/C under setting [7] is 102 % of control; the T/C under setting [4] is 90 % of control; the T/C under setting [8] is 93 % of control; the T/C under setting [5] is 93 % of control; the T/C under setting [9] was 96 % of control; the T/C under setting [6] was 97 % of control.

In the case of `CCOc1cccc(Cc2cn(Cc3cccc(NC(=O)Nc4cccc(S(=O)(=O)F)c4)c3)c(=O)[nH]c2=O)c1`, the T/C is, setting by setting: under setting [10], 95 % of control; under setting [11], 95 % of control; (endpoint: mean survival time, dose: 400.0 mg/kg/injection, schedule: Q01DX001 (ip), vehicle: saline with Tween-80) 94 % of control.

Consider `O=C(O)c1cccnc1F`, for which the T/C is 94 % of control under setting [4], 98 % of control under setting [5] and 96 % of control under setting [6].

As for `COC(=O)c1ccccc1Cn1c(C)cnc1C`, the T/C is, setting by setting: (endpoint: mean survival time, dose: 12.5 mg/kg/injection, schedule: Q01DX009 (ip), vehicle: saline) 101 % of control; (endpoint: mean survival time, dose: 25.0 mg/kg/injection, schedule: Q01DX009 (ip), vehicle: saline) 93 % of control; (endpoint: mean survival time, dose: 50.0 mg/kg/injection, schedule: Q01DX009 (ip), vehicle: saline) 101 % of control and 105 % of control.

On to `COC(OC)C1C=CC=CC=C1`, for which the T/C is, setting by setting: (endpoint: mean survival time, dose: 100.0 mg/kg/injection, schedule: Q04DX003 (ip), vehicle: saline sonified) 92 % of control; (endpoint: mean survival time, dose: 200.0 mg/kg/injection, schedule: Q04DX003 (ip), vehicle: saline sonified) 94 % of control; (endpoint: mean survival time, dose: 400.0 mg/kg/injection, schedule: Q04DX003 (ip), vehicle: saline sonified) 90 % of control.

As to `O=C(CC(c1ccccc1)c1ccccc1)c1ccccc1`, the T/C reads like this: under setting [7], 98 % of control; under setting [8], 95 % of control; under setting [9], 98 % of control.

For the molecule `Nc1ccc(-c2ccc(C(=O)O)cc2)cc1`, the T/C reads like this: under setting [10], 104 % of control and 108 % of control; under setting [1], 101 % of control and 107 % of control; under setting [11], 93 % of control and 98 % of control; under setting [2], 95 % of control and 96 % of control; under setting [3], 87 % of control.

Regarding `[Cl][Gd]([Cl])[Cl]`, the T/C runs as follows: under setting [7], 92 % of control; under setting [8], 94 % of control.

For `CCOC(CC)c1ccccc1` (stereo unspecified), the T/C was 103 % of control (endpoint: mean survival time, dose: 50.0 mg/kg/injection, schedule: Q01DX009 (ip), vehicle: saline with Tween-80); 103 % of control under setting [7]; 106 % of control under setting [8].

Regarding `CCCCCCCC(=O)Nc1ccccc1CC`, the T/C is 94 % of control under setting [7], 100 % of control under setting [8] and 102 % of control under setting [9].

For the molecule `NCc1cc(O)c(O)c(O)c1`, the T/C reads like this: (endpoint: median survival time, dose: 37.5 mg/kg/injection, schedule: Q01DX005 (ip), vehicle: saline) 114 % of control; (endpoint: median survival time, dose: 150.0 mg/kg/injection, schedule: Q01DX005 (ip), vehicle: saline) 153 % of control; (endpoint: median survival time, dose: 300.0 mg/kg/injection, schedule: Q01DX005 (ip), vehicle: saline) 156 % of control and 160 % of control.

`CCCCCCCCN(C)N=Nc1ccccc1`: the T/C by setting is: (endpoint: mean survival time, dose: 79.0 mg/kg/injection, schedule: Q01DX009 (ip), vehicle: Klucel (hydroxypropylcellulose) (HPC)) 110 % of control; (endpoint: mean survival time, dose: 177.0 mg/kg/injection, schedule: Q01DX009 (ip), vehicle: Klucel (hydroxypropylcellulose) (HPC)) 124 % of control; (endpoint: mean survival time, dose: 266.0 mg/kg/injection, schedule: Q01DX009 (ip), vehicle: Klucel (hydroxypropylcellulose) (HPC)) 122 % of control.

With `N#CC(C#N)=c1ccc(=C(C#N)C#N)cc1`, the T/C under setting [4] was 98 % of control.

`C/C(=C\Cl)CN(C)C`: the T/C runs as follows: (endpoint: mean survival time, dose: 50.0 mg/kg/injection, schedule: Q01DX009 (ip), vehicle: acetone) 97 % of control; (endpoint: mean survival time, dose: 100.0 mg/kg/injection, schedule: Q01DX009 (ip), vehicle: acetone) 103 % of control.

Values taken from PubChem BioAssay AID256 (DTP/NCI, 2004).
